# Experimental data as given in patent US20190185479A1, “BICYCLIC NITROGENATED HETEROCYCLIC COMPOUND” (MITSUBISHI TANABE PHARMA CORPORATION, priority 2016, published 2019).
# Columns and labels:
# Assay type in all cases: biochemical
# hPDE4D = biological target: T1, hPDE4D (Homo sapiens, UniProt Q08499); experiment: PDE4 inhibition assay (IC50), Experimental Example 3; settings: for IC50: hPDE4D, read-out: PDE inhibition assay IC50, PDE4; for inhibition at 10 µM: at 10 μmol/L; for inhibition at 1 µM: at 1 μmol/L
# T1 construct: purchased SB Drug Discovery
# Procedure: (§1) PDE7 inhibitory assay was carried out by reacting the mixture of a compound, hPDE7B, and cAMP, and measuring the residual cAMP by a detection method using LANCE (registered trademark) Ultra cAMP Detection Kit (ParkinElmer). The compound was dissolved in DMSO, and diluted so that the concentration would become 50 times of the final concentration. The hPDE7B and cAMP were diluted with an assay buffer (50 mmol/L Tris-HCl, 1 mmol/L MgCl2, 0.1% BSA, 0.5 mmol/L DTT, pH7.5) so that the hPDE7B would have an appropriate enzyme activity and the concentration of cAMP would become 6 nmol/L. To a 96 well plate were added the compound (2 μL) (DMSO final concentration: 2%), hPDE7B (48 μL), and cAMP (50 μL) (concentration at the reaction: 3 nmol/L), and the resulting mixture was reacted at room temperature for 60 minutes. The reaction solution (20 μL) was subjected to a TR-FRET method according to the protocol specified by the kit to measure the concentration of the residual cAMP. In the assay, to a tracer solution specified by the kit was added 0.5 mmol/L of 3-isobutyl-1-methylxanthine (IBMX, nonselective PDE inhibitor) in order to stop the PDE enzyme reaction after the completion of reaction until the measurement.
# (§2) The prediction of PDE7 selectivity was evaluated by comparing each IC50 value of a compound against PDE4, 8, and 10 with the IC50 value of said compound against PDE7B.
# (§3) hPDE4D, hPDE8B, and hPDE10A were prepared by the same method as [Method for preparing samples 2].
# (§4) PDE4, 8, and 10 inhibitory assays were carried out by the same method as [Assay procedure 1].
# (§5) The reaction without a compound wad defined as “0% inhibition”, the reaction without each PDE was defined as “100% inhibition”, and the calculation of IC50 value was carried out by the same method as <Method for data calculation 1>.
# hPDE8B = biological target: T2, hPDE8B (Homo sapiens, UniProt O95263); experiment: PDE8 inhibition assay (IC50), Experimental Example 3; settings: for IC50: hPDE8B, read-out: PDE inhibition assay IC50, PDE8; for inhibition at 10 µM: at 10 μmol/L
# T2 construct: purchased SB Drug Discovery
# Procedure: as §1, §2, §3, §4, §5
# Human PDE7B (hPDE7B) = biological target: T3, Human PDE7B (hPDE7B) (Homo sapiens, UniProt Q9NP56); experiment: Measurement of PDE7 inhibitory activity (Experimental Example 1; residual cAMP, LANCE Ultra cAMP TR-FRET); settings: cAMP 3 nmol/L, room temperature 60 minutes
# T3 construct: made in house; host or cells: COS-7 cells
# In short: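 hPDE7B from transfected COS-7 cells reacted with 3 nmol/L cAMP (final) and compound (2% DMSO) in 50 mmol/L Tris-HCl pH 7.5, 1 mmol/L MgCl2, 0.1% BSA, 0.5 mmol/L DTT, 60 min at room temperature. Reaction stopped with IBMX; residual cAMP measured by TR-FRET. Inhibition scaled between no-compound and no-enzyme controls.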
# hPDE10A = hPDE10A (Homo sapiens, UniProt Q9Y233); experiment: PDE10 inhibition assay (IC50), Experimental Example 3; settings: for IC50: hPDE10A, read-out: PDE inhibition assay IC50, PDE10; for inhibition at 10 µM: at 10 μmol/L
# Procedure: as §1, §2, §3, §4, §5
# [1] = read-out: inhibition rate (%) at prescribed concentration, PDE4
# [2] = read-out: inhibition rate (%) at prescribed concentration, PDE8
# [3] = read-out: inhibition rate (%) at prescribed concentration, PDE10
# [4] = at 1 μmol/L, read-out: inhibition rate (%) at prescribed concentration, PDE8
# T2 sequence (O95263 whole entry): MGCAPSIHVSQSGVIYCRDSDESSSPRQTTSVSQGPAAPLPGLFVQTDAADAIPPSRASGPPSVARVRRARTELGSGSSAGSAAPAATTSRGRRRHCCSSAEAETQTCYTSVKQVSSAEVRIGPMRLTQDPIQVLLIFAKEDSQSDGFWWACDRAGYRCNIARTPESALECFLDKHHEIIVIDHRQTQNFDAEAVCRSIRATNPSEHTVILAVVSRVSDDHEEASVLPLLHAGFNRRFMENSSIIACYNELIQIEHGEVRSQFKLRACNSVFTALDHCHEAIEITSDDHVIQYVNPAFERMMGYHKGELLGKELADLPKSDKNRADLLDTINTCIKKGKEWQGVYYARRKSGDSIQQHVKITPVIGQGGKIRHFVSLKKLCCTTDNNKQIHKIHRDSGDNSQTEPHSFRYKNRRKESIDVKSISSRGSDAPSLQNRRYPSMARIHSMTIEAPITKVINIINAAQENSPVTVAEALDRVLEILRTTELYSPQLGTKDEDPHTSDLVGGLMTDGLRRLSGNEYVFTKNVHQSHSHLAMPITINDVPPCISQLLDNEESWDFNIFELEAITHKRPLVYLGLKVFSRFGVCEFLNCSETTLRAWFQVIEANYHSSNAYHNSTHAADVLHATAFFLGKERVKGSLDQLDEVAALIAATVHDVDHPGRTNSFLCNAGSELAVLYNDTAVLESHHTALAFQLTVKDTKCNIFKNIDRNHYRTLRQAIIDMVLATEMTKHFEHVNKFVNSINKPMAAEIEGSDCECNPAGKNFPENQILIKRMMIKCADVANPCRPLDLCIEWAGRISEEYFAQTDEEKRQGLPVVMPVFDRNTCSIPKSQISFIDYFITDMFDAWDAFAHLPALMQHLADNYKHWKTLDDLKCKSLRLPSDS
# T1 sequence (Q08499 whole entry): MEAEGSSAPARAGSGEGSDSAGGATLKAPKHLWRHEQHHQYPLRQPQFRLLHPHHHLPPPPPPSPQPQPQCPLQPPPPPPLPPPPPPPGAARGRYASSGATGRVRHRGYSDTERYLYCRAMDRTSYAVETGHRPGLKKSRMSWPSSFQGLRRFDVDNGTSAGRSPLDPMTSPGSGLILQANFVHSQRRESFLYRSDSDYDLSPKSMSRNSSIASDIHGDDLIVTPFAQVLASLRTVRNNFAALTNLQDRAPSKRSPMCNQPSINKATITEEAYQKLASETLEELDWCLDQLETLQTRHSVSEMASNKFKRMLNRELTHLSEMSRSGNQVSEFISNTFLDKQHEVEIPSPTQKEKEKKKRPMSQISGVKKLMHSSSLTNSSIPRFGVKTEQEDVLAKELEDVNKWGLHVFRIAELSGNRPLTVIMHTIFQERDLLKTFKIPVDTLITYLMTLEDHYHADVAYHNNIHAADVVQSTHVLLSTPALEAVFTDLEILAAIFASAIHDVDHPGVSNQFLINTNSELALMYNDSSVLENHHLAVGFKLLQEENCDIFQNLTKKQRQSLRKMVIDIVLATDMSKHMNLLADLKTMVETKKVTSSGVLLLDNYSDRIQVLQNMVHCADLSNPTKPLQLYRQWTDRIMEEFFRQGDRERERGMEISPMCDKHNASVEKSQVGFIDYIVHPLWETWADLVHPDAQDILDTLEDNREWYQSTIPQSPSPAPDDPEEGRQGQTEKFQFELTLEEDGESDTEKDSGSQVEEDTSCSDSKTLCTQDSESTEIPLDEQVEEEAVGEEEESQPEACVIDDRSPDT
# T3 sequence (Q9NP56 whole entry): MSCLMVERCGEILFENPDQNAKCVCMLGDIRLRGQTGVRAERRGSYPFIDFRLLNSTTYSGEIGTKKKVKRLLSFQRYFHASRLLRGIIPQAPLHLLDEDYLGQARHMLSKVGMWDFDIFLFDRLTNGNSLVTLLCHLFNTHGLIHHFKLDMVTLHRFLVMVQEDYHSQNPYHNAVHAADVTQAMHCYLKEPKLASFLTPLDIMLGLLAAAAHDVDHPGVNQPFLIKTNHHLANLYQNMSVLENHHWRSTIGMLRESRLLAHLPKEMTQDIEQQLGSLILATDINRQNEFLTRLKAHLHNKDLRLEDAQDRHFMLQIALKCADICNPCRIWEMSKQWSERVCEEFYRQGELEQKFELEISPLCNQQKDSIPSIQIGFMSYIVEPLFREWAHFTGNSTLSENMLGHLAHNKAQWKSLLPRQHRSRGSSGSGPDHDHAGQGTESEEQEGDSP
# Chain of hPDE10A (Q9Y233 290-1055 limits assumed): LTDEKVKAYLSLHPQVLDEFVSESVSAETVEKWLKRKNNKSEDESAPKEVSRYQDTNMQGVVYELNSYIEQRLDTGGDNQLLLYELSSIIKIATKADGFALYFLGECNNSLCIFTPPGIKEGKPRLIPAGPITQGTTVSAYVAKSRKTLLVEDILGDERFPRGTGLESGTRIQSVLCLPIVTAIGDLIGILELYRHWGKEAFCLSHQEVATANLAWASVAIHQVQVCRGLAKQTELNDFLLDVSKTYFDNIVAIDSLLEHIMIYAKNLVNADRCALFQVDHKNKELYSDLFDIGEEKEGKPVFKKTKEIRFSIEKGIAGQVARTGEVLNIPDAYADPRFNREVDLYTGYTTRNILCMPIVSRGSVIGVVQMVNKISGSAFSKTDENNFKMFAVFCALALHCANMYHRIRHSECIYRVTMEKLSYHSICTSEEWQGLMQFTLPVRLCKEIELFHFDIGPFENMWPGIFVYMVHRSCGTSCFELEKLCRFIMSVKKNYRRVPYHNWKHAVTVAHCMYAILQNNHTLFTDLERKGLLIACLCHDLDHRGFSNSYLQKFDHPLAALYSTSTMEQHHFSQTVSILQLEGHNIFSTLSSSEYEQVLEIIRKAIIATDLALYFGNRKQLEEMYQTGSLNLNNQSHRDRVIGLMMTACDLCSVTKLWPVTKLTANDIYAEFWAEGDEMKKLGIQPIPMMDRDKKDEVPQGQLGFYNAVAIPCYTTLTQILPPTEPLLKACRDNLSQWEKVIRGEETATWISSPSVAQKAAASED
IC50 (hPDE4D),IC50 (hPDE8B),IC50 (Human PDE7B (hPDE7B)),IC50 (hPDE10A),Structure (SMILES),other results
6.3 µM,2.7 µM,0.00015 µM,3.2 µM,"CC1CCC(C)N(c2nnc3c(N)ncc(C#N)n23)C1 (single isomer, unassigned) [Example 234, 8-amino-3-(2,5-dimethylpiperidin-1-yl) [1,2,4]triazolo[4,3-a]pyrazine-5-carbonitrile]",–
–,–,0.46 µM,–,"Nc1cccn2c(C3CCCCC3)nnc12 [Example 186, 3-cyclohexyl[1,2,4]triazolo[4,3-a]pyridin-8-amine]",inhibition at 10 µM (hPDE4D; [1]): -5%; inhibition at 10 µM (hPDE8B; [2]): -1%; inhibition at 10 µM (hPDE10A; [3]): 7%
–,1.74 µM,0.09 µM,20.8 µM,Nc1nccn2c(C3CCCOC3)nnc12 (stereo not drawn) [Example 169],inhibition at 10 µM (hPDE4D; [1]): 33%
11.9 µM,–,< 0.01 µM,12.3 µM,"Nc1ncnc2c1nnn2C1CCCCC1(F)F (single isomer, unassigned) [Example 115, 3-(2,2-difluorocyclohexyl)-3H-[1,2,3]triazolo[4,5-d]pyrimidin-7-amine]",inhibition at 1 µM (hPDE8B; [4]): 52%
–,1.62 µM,0.0007 µM,6.23 µM,"CC1(C)CCCN(c2nnc3c(N)ncc(C#N)n23)C1 [Example 2, 8-amino-3-(3,3-dimethylpiperidin-1-yl) [1,2,4]triazolo[4,3-a]pyrazine-5-carbonitrile]",inhibition at 1 µM (hPDE4D; [1]): 61%
2.13 µM,0.24 µM,0.01 µM,–,"C[C@H]1CC[C@H](n2nnc3c(N)ncnc32)CC1 [Example 8, 3-(trans-4-methylcyclohexyl)-3H-[1,2,3]triazolo[4,5-d]pyrimidin-7-amine]",inhibition at 10 µM (hPDE10A; [3]): 48%
7.86 µM,3.35 µM,0.04 µM,–,"CC1CC(C)CN(c2nnc3c(N)ncc(C#N)n23)C1 (racemic) [Example 54, 8-amino-3-(3,5-dimethylpiperidin-1-yl) [1,2,4]triazolo[4,3-a]pyrazine-5-carbonitrile]","inhibition at 100 µM (hPDE10A; at 100 μmol/L, read-out: inhibition rate (%) at prescribed concentration, PDE10): 30%"
2.19 µM,1.52 µM,0.03 µM,2.33 µM,"CC1(C)CCCN(c2nnc3c(N)ncc(C4CC4)n23)C1 [Example 43, 5-cyclopropyl-3-(3,3-dimethylpiperidin-1-yl) [1,2,4]triazolo[4,3-a]pyrazin-8-amine]",–
6.21 µM,2.49 µM,0.04 µM,17.9 µM,"Nc1ncnn2c(C3CCCC(F)(F)C3)nnc12 (racemic) [Example 82, 3-(3,3-difluorocyclohexyl) [1,2,4]triazolo[3,4-f][1,2,4]triazin-8-amine]",–
6 µM,3 µM,0.003 µM,8 µM,"Cc1cnc(N)c2nnc(N3CCCC(C)(C)C3)n12 [Example 80, 3-(3,3-dimethylpiperidin-1-yl)-5-methyl[1,2,4]triazolo[4,3-a]pyrazin-8-amine]",–
5.8 µM,18.4 µM,0.06 µM,16.3 µM,"CC1CCN(c2nnc3c(N)nccn23)C(C)C1 (racemic) [Example 61, 3-(2,4-dimethylpiperidin-1-yl) [1,2,4]triazolo[4,3-a]pyrazin-8-amine]",–
8.19 µM,1.16 µM,0.08 µM,6.8 µM,C[C@@H]1C[C@H](C)CN(c2nnc3c(N)nccn23)C1 [Example 52],–
6.98 µM,–,0.04 µM,12.2 µM,"Nc1ncnc2c1nnn2C1CCCCC1F (single isomer, unassigned) [Example 194, 3-(cis-2-fluorocyclohexyl)-3H-[1,2,3]triazolo[4,5-d]pyrimidin-7-amine]",inhibition at 1 µM (hPDE8B; [4]): 79%
0.036 µM,0.86 µM,0.033 µM,0.16 µM,"CC1CCC(C)(C)CN1c1nnc2c(N)nccn12 (single isomer, unassigned) [Example 236, 3-(2,5,5-trimethylpiperidin-1-yl) [1,2,4]triazolo[4,3-a]pyrazin-8-amine]",–
–,–,0.06 µM,4.8 µM,"Nc1nccn2c(C3CCC4CC4C3)nnc12 (single isomer, unassigned) [Example 221, 3-(bicyclo[4.1.0]hept-3-yl) [1,2,4]triazolo[4,3-a]pyrazin-8-amine]","inhibition at 0.1 µM (hPDE4D; at 0.1 μmol/L, read-out: inhibition rate (%) at prescribed concentration, PDE4): 55%; inhibition at 0.1 µM (hPDE8B; at 0.1 μmol/L, read-out: inhibition rate (%) at prescribed concentration, PDE8): 69%"
7.8 µM,–,0.39 µM,–,"Nc1nccn2c(C3CCCCC3)ncc12 [Example 180, 3-cyclohexylimidazo[1,5-a]pyrazin-8-amine]",inhibition at 10 µM (hPDE8B; [2]): 36%; inhibition at 10 µM (hPDE10A; [3]): 41%
56.9 µM,7.7 µM,0.08 µM,34.5 µM,Nc1nccn2c(N3CCCC(C(F)(F)F)C3)nnc12 (stereo not drawn) [Example 46],–
4.7 µM,4 µM,0.08 µM,17.9 µM,"Nc1nccn2c([C@H]3[C@@H]4CCC[C@@H]43)nnc12 [Example 179, 3-[(1R,5S,6r)-bicyclo[3.1.0]hex-6-yl][1,2,4]triazolo[4,3-a]pyrazin-8-amine]",–
–,–,< 0.01 µM,2.86 µM,"CC1(C)CCCC(c2nnc3c(N)ncnn23)C1 (single isomer, unassigned) [Example 242, 3-(3,3-dimethylcyclohexyl) [1,2,4]triazolo[3,4-f][1,2,4]triazin-8-amine]",inhibition at 1 µM (hPDE4D; [1]): 53%; inhibition at 1 µM (hPDE8B; [4]): 84%
9.45 µM,2.06 µM,0.17 µM,–,Nc1ncnc2c1nnn2C1CCC(F)(F)CC1 [Example 104],inhibition at 10 µM (hPDE10A; [3]): 25%
3.6 µM,4.2 µM,0.01 µM,5.2 µM,"CC1CC(C)CN(c2nnc3c(N)nccn23)C1 (single isomer, unassigned) [Example 226, 3-[trans-3,5-dimethylpiperidin-1-yl][1,2,4]triazolo[4,3-a]pyrazin-8-amine]",–
4.77 µM,3.51 µM,0.06 µM,10.6 µM,Nc1nccn2c(C3CCc4[nH]ncc4C3)nnc12 (stereo not drawn) [Example 159],–
–,–,< 0.01 µM,3.1 µM,"CC1CCCC(c2nnc3c(N)ncnn23)C1 (single isomer, unassigned) [Example 240, 3-(cis-3-methylcyclohexyl) [1,2,4]triazolo[3,4-f][1,2,4]triazin-8-amine]","inhibition at 1 µM (hPDE4D; [1]): 86%; inhibition rate (%) at prescribed concentration, PDE8 (hPDE8B; at 1 μmol/L): 95% at 1"
4.1 µM,2.6 µM,0.08 µM,3 µM,"Nc1nccn2c(C3CCC4CC4C3)nnc12 (single isomer, unassigned) [Example 218, 3-(bicyclo[4.1.0]hept-3-yl) [1,2,4]triazolo[4,3-a]pyrazin-8-amine]",–
3.5 µM,0.59 µM,0.03 µM,–,"Nc1ncnc2c1nnn2C1CCCCCC1 [Example 110, 3-cycloheptyl-3H-[1,2,3]triazolo[4,5-d]pyrimidin-7-amine]",inhibition at 10 µM (hPDE10A; [3]): 33%
5.45 µM,3.93 µM,0.013 µM,17.7 µM,"Nc1nccn2c(C3CCCC(C(F)(F)F)C3)nnc12 (single isomer, unassigned) [Example 210, 3-[cis-3-(trifluoromethyl)cyclohexyl][1,2,4]triazolo[4,3-a]pyrazin-8-amine]",–

Structure (SMILES),IC50 (hPDE4D),IC50 (hPDE8B),IC50 (Human PDE7B (hPDE7B)),IC50 (hPDE10A),other results
Nc1nccn2c(N3C4CCCC3CC4)nnc12 [Example 67],21 µM,15 µM,0.09 µM,31.8 µM,–
